Laboratory results taken from US7732452B2, “Thiophene derivatives which are HM74A agonists” (Hoffmann-La Roche Inc., priority 2005, dated 2010).
pEC50: −log10 of the molar value.

Key:
[1] = target: T1, HM74A (Homo sapiens, UniProt Q8TDS4); test: Secondary fluorescent calcium indicator assay (FLIPR); type: cell-based; conditions: HEK-293 cells stably expressing HM74A and chimeric G protein Gqi9; % stimulation of maximal nicotinic acid response (100 μM)
T1 construct: expressed in transfected cells; pcDNA3.1 vectors; co-expressing chimeric G protein Gqi9
Experimental: Secondary Fluorescent Calcium Indicator Assay (FLIPR)
HEK-293 cells were grown in tissue culture medium (DMEM/Nut mix F12 Medium with Glutamax I (Invitrogen), containing 10% FBS) at 37° C. in a 5% CO2 atmosphere. These cells were cultured in 6-well dishes at 3×10^5 cells/well and double transfected with DNA vectors (pcDNA3.1, Invitrogen) expressing either HM74A or HM74 and the chimeric G protein Gqi9. Two days after transfection the wells were combined and plated in 150 cm^2 flasks, in the presence of 50 μg/ml Hygromycin (Invitrogen) and 500 μg/ml Geneticin (Gibco). Fourteen days after plating, colonies were picked, expanded and analyzed for expression using a functional assay (FLIPR). Stable transfected HEK-293 cells expressing either HM74A or HM74 and the chimeric G protein Gqi9 were plated at 50,000 cells/well in black 96-well plates with clear bottom (Costar) and cultured to confluency overnight in growth media (DMEM/Nut mix F12 Medium with Glutamax I (Invitrogen), containing 10% FBS) at 37° C. in a humidified cell incubator containing 5% CO2. Growth media was aspirated and replaced with 100 μl of 1×FLIPR Calcium Assay Dye (Molecular Devices) in Hank's balanced salt solution (HBSS) containing 10 mM HEPES, and […] probenecid (Sigma), for 1 hour at 37° C. Cell plates were transferred to a FLIPR unit (Molecular Devices), and 50 μl of 3× compound dilution were added. Fluorescence emissions were measured and the effects of compounds were expressed as % stimulation of maximal nicotinic acid response (100 μM). Sigmoidal curves were fitted using the XLfit3 program (ID Business Solutions Ltd. UK) and EC50 values determined.

T1 sequence (Q8TDS4 whole entry): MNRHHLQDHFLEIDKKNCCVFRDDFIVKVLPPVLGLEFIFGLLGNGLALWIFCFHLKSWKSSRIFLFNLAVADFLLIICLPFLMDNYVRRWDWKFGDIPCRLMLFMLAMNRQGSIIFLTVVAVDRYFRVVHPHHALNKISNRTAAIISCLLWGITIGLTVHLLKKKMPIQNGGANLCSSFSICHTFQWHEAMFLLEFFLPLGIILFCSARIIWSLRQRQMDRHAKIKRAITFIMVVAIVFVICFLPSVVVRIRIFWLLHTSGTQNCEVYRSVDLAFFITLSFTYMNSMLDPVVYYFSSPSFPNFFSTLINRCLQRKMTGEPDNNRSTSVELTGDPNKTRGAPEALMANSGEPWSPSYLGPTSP

## CC(=O)Nc1cccc(-c2ccc(OCC(=O)Nc3cscc3C(=O)O)cc2)c1 [Example 6, 4-[2-(3′-Acetylamino-biphenyl-4-yloxy)-acetylamino]-thiophene-3-carboxylic acid]
other
  melting point: 250 to 253 °C

## COc1ccccc1-c1ccc(OCC(=O)Nc2cscc2C(=O)O)nc1 [Example 10, 4-{2-[5-(2-Methoxy-phenyl)-pyridin-2-yloxy]-acetylamino}-thiophene-3-carboxylic acid]
other
  melting point: 194 to 197 °C

## O=C(COc1ccc(-c2cccc(Cl)c2)cc1)Nc1cscc1C(=O)O [Example 4, 4-[2-(3′-Chloro-biphenyl-4-yloxy)-acetylamino]-thiophene-3-carboxylic acid]
other
  melting point: 216 to 218 °C

## Cc1ccccc1-c1ccc(OCC(=O)Nc2cscc2C(=O)O)cc1 [Example 5, 4-[2-(2′-Methyl-biphenyl-4-yloxy)-acetylamino]-thiophene-3-carboxylic acid]
other
  melting point: 207 to 209 °C

## COc1ccccc1-c1ccc(OCC(=O)Nc2cscc2C(=O)O)cc1 [Example 3, 4-[2-(2′-Methoxy-biphenyl-4-yloxy)-acetylamino]-thiophene-3-carboxylic acid]
other
  melting point: 196 to 199 °C

## O=C(COc1ccc(Cl)c(Cl)c1)Nc1cscc1C(=O)O [Example 18, 4-[2-(3,4-Dichloro-phenoxy)-acetylamino]-thiophene-3-carboxylic acid]
other
  melting point: 258 to 264 °C

## O=C(COc1ccc(-c2ccc(F)cc2)cc1)Nc1cscc1C(=O)O [Example 1, 4-[2-(4′-Fluoro-biphenyl-4-yloxy)-acetylamino]-thiophene-3-carboxylic acid]
other
  melting point: 244 to 251 °C

## CC(C)(C)c1ccc(OCC(=O)Nc2cscc2C(=O)O)cc1 [Example 23, 4-[2-(4-tert-Butyl-phenoxy)-acetylamino]-thiophene-3-carboxylic acid]
[1]
  pEC50: 6.65

## O=C(COc1ccc(-c2ccc(F)cc2)cn1)Nc1cscc1C(=O)O [Example 11, 4-{2-[5-(4-Fluoro-phenyl)-pyridin-2-yloxy]-acetylamino}-thiophene-3-carboxylic acid]
[1]
  pEC50: 6.88

## CC(=O)c1cccc(-c2ccc(OCC(=O)Nc3cscc3C(=O)O)cc2)c1 [Example 8, 4-[2-(3′-Acetyl-biphenyl-4-yloxy)-acetylamino]-thiophene-3-carboxylic acid]
other
  melting point: 212 to 214 °C

## O=C(COc1ccc(-c2ccccc2)cc1)Nc1cscc1C(=O)O [Example 2, 4-[2-(Biphenyl-4-yloxy)-acetylamino]-thiophene-3-carboxylic acid]
[1]
  pEC50: 7.31
other
  melting point: 247 to 251 °C

## COc1cccc(-c2ccc(OCC(=O)Nc3cscc3C(=O)O)cc2)c1 [Example 7, 4-[2-(3′-Methoxy-biphenyl-4-yloxy)-acetylamino]-thiophene-3-carboxylic acid]
other
  melting point: 187 to 189 °C

## O=C(COc1ccc(-c2ccccc2Cl)cn1)Nc1cscc1C(=O)O [Example 19, 4-{2-[5-(2-Chloro-phenyl)-pyridin-2-yloxy]-acetylamino}-thiophene-3-carboxylic acid]
other
  melting point: 218 to 223 °C
